These results are taken from PMC8703807, “Synthesis of ^68Ga-Labeled cNGR-Based Glycopeptides and In Vivo Evaluation by PET Imaging” (Pharmaceutics, 2021).

Data set [1] can be described thus: Determination of logP value (octanol/water partition coefficient). In kind it is physicochemical. How it is done: The mixture was shaken with a vortex shaker for 5 min and centrifugated (9000 rpm) for 5 min. A 3 × 20 µL amount of both solvents was pipetted into a vial. The radioactivity of the fractions was determined with a gamma counter.
For data set [2], the system named is B16-F10 melanoma tumor-bearing mice. The data set can be described thus: In vivo PET imaging of B16-F10 melanoma tumor-bearing mice. Particulars: 70 min after i.v. injection; for identification of subcutaneous B16-F10 tumors on PET images: qualitative. How it is done:
(§1) For subcutaneous B16-F10 (mouse melanoma) tumor induction, C57BL/6 mice (n = 20) were anaesthetized with 3% isoflurane (Forane, AbbVie) using a dedicated small animal anesthesia device (Tec3 Isoflurane Vaporizer, Eickemeyer, UK) and mice were injected subcutaneously with 3 × 10^6 B16-F10 cells in 150 µL of sterile saline into the left shoulder area of the animals. In vivo and ex vivo experiments were carried out 10 ± 1 days after subcutaneous injection of tumor cells at the tumor volume of 80 ± 2 mm^3.
(§2) For in vivo biodistribution studies B16-F10 tumor-bearing mice were anaesthetized with 3% isoflurane and were injected with 6.6 ± 0.3 MBq [^68Ga]-11, or [^68Ga]-3, or [^68Ga]-9 or [^68Ga]-10 in 150 μL saline via the lateral tail vein 10 ± 1 days after subcutaneous injection of tumor cells. 20 min static PET scans were performed 70 min after intravenous injection of the radiotracers from the tumorous area using the preclinical miniPET-II device (University of Debrecen, Faculty of Medicine, Department of Medical Imaging, Division of Nuclear Medicine and Translational Imaging). After image reconstruction, volumes of interest (VOIs) were manually drawn around the examined regions using the BrainCAD image analysis software and quantitative standardized uptake values (SUVs) values were calculated.
(§3) Figure 1 In vivo PET imaging of [^68Ga]-11, [^68Ga]-3, [^68Ga]-9 and [^68Ga]-10 accumulation in B16-F10 tumor-bearing mice 10 ± 1 days after tumor cell inoculation and 70 min after intravenous injection of the radiotracers (A panel). Red arrows: B16-F10 tumor; black arrows: liver. (B,C) panels: quantitative SUVmean and tumor-to-background (muscle) ratio (T/M) analysis of tracer uptake in mice (n = 3/radiopharmaceutical) 70 min post-injection. Significance level: p ≤ 0.05 (*). SUV: standardized uptake value; T/M: tumor-to-muscle ratio. SUV values are presented as mean ± SD.

Assay in data set [3]: as above
The conditions noted are these: C57BL/6, mouse, in vivo, iv, total radioactivity. Here is the method:
as §1, §2, §3

Data set [4] deals with B16-F10 tumor-bearing mice. Particulars: ex vivo, 90 min after injection, compared to the other investigated molecules. How it is done: as §1
Setting [5] is: 1-octanol/water, gamma counter, read-out: octanol/water partition coefficient (logP).
[6] abbreviates: tumor SUVmean, B16-F10 tumor, 70 min after i.v. injection, n = 3, mean ± SD.

Like-named read-outs stand apart in the source and are kept apart here. Positions of bridges follow the written chain, without caps; N, C: chain ends. Residues, ends and D or L forms follow the SMILES beside them. *: point of attachment. X1 = O=C(O)CN1CCN(CC(=O)O)CCN(C(CCC(=O)NCc2ccc(NC(=S)*)cc2)C(=O)O)CCN(CC(=O)O)CC1

As to `N=C(N)NCCC[C@@H]1NC(=O)CNC(=O)[C@H](CC(N)=O)NC(=O)[C@H](CCCCNC(=O)CCC(=O)N2Cc3ccccc3-c3c(nnn3CCCO[C@@H]3O[C@H](CO)[C@@H](O[C@@H]4O[C@H](CO)[C@H](O)[C@H](O)[C@H]4O)[C@H](O)[C@H]3NC(=S)Nc3ccc(CNC(=O)CCC(C(=O)O)N4CCN(CC(=O)O)CCN(CC(=O)O)CCN(CC(=O)O)CC4)cc3)-c3ccccc32)NC(=O)CC[C@@H](C(N)=O)NC1=O` (stereo partly shown) [[^68Ga]-9, metal not drawn], the logP in data set [1] (setting [5]) was -3.68. The “liver SUVmean” value in data set [2] (n = 3, mean ± SD) is listed as 0.18 ± 0.01. In addition, the “identification of subcutaneous B16-F10 tumors on PET images” value (shortened to “identification”) in data set [2] is listed as “clearly identified”. The tissue to tissue ratio at 70 min in data set [3] was determined as 6.01 ± 1.24. The SUV at 70 min in data set [3] (setting [6]) was 0.11 ± 0.03 SUV.

With `N=C(N)NCCC[C@@H]1NC(=O)CNC(=O)[C@H](CC(N)=O)NC(=O)[C@H](CCCCNC(=O)CCOCCOCCOCCOCCNC(=O)CCC(=O)N2Cc3ccccc3-c3c(nnn3CCCO[C@@H]3O[C@H](CO)[C@@H](O[C@@H]4O[C@H](CO)[C@H](O)[C@H](O)[C@H]4O)[C@H](O)[C@H]3NC(=S)Nc3ccc(CNC(=O)CCC(C(=O)O)N4CCN(CC(=O)O)CCN(CC(=O)O)CCN(CC(=O)O)CC4)cc3)-c3ccccc32)NC(=O)CC[C@@H](C(N)=O)NC1=O` (stereo partly shown) [[^68Ga]-10, metal not drawn], in data set [1] (setting [5]), the logP is -3.69. The “radioactivity concentration in blood” value in data set [4] is given as “higher radioactivity concentration”. In data set [2], the “identification” value is on record as “clearly identified”. Also, in data set [3], the tissue to tissue ratio at 70 min came out at 7.89 ± 1.31. The SUV at 70 min in data set [3] (liver SUVmean, 70 min after i.v. injection, n = 3, mean ± SD) worked out at 0.1 ± 0.02 SUV; in data set [3] (setting [6]), 0.15 ± 0.01 SUV.

Molecule `N=C(N)NCCC[C@@H]1NC(=O)CNC(=O)[C@H](CC(N)=O)NC(=O)[C@H](CCCCNC(=S)Nc2ccc(CNC(=O)CCC(C(=O)O)N3CCN(CC(=O)O)CCN(CC(=O)O)CCN(CC(=O)O)CC3)cc2)NC(=O)CC[C@@H](C(N)=O)NC1=O` (stereo partly shown) [[^68Ga]-11, metal not drawn] (K(X1)NGRE-NH2; lactam N-5) gave a logP in data set [1] of -4.13. Further, the “identification” value in data set [2] was “clearly identified”. For the same molecule, the tissue to tissue ratio at 70 min in data set [3] was found to be 5.71 ± 1.17. For the same molecule, the SUV at 70 min was 0.28 ± 0.1 SUV in data set [3] (liver SUVmean) and 0.09 ± 0.03 SUV in data set [3] (tumor SUVmean).
